From US20040086471A1, “Compositions for darkening the skin and/or hair” (priority 2002, published 2004)

How the values were obtained:
[1] = test system: Type IV pigmented epidermal equivalents (human melanocytes and keratinocytes); tyrosinase activity / melanin deposition; assay: Pigmentation in pigmented epidermal equivalents (DOPA and F&M staining); format: cell-based; conditions: for Overall Score (change of pigmentation by DOPA and F&M staining) / Score DOPA staining (tyrosinase activity) / Score F&M staining (Pigment deposition): 0.1% (w/v) in PBS, treated three or five days, type IV epidermal equivalents
Method: Copper PCA (Barnet Products Corp., Englewood cliffs, N.J.) was tested for its ability to induce pigmentation in pigmented epidermal equivalents. The pigmented epidermal equivalents contained human normal melanocytes, together with normal, human-derived epidermal keratinocytes, which have been cultured to form a multi-layered, highly differentiated model of the human epidermis. Type IV pigmented epidermal equivalents (consisting of normal human keratinocytes pooled from variety of phototype skins and normal human melanocytes derived from type IV phototype skin) were treated with test compounds for three or five days and samples were harvested on the fourth or sixth day of the study. The harvested equivalents were stained with DOPA (a substrate for tyrosinase) or with Fontana-Mason (F&M) (Sheenan DC, Hrapckak BB, eds: Theory and practice of Histo-Thchnology (St Louis: CV Mosby, 1980) pp 223-277). F&M staining identifies silver nitrate reducing activity, which, in skin, identifies melanin.
The epidermal equivalents used were SkinEthic® reconstructed human epidermis from SkinEthic™ Laboratory (Nice, France). UV irradiation was performed with a UVB FS light source in an exposure chamber, with plate covers removed and Phosphate-buffered saline (PBS, from Gibco-BRL, Gaithersburg, Md.) present in the lower chamber. UVB intensity was measured with a UVX radiometer (UVP Inc., San Gabriel, Ca.). Equivalents were treated with 0.1-0.12 J/cm2. […] The copper PCA and tyrosine were dissolved in PBS.
On the fourth or sixth day of the study, the equivalents were fixed, sectioned and F&M stained, or they were DOPA stained as whole without sectioning, using standard techniques. At least three sections per equivalent, three equivalents per experiment were processed. Each experiment was repeated three times. DOPA-stained epidermal equivalents were evaluated for the change in tyrosinase activity. F&M-stained histological sections were evaluated for the change in pigment deposition. Due to the low content of melanin within the type IV epidermal equivalent, it was not possible to quantify the level of pigment within melanocytes in F&M stained sections by image analysis. Therefore, the pigment change was evaluated using the scale defined below in Table 1.
Table 2 represents the overall score in change of pigmentation, as evaluated by DOPA and F&M staining, as set forth above, when equivalents were exposed to Copper PCA (0.1% (w/v)) and/or tyrosine (0.1% (w/v)) or UVB irradiation (0.10J/cm^2).

[2] = test system: skin of Yucatan microswine; assay: Pigment deposition in swine skin in vivo (F&M histology of biopsies); conditions: for pigment deposition in swine skin (in words): topical, in vivo, histological analysis
Description: Dark skinned Yucatan microswine (Charles River, Portland, Me.) were housed in appropriately sized cages in an environmentally controlled room with a 12-hour light—12-hour dark photoperiod and supplied with food and water ad libi tum. Twenty μl of test materials were applied topically, twice a day, five days/week, for eight or nine weeks, on the dorsum of the swine. Treatments of individual swine were always arranged in a head to tail order on one side, and in a tail to head order on the other side of the animal. Biopsies were taken using standard techniques.
Swine were treated with either 0.5% w(w/v) of the copper PCA and/or tyrosine or ultraviolet-B radiation (as a positive control). The copper PCA and tyrosine were dissolved in ethanol: propylene glycol 70:30 (v/v). A […] erythema dose (MED) of UVB was determined by placing a plastic template with 1×1 inch^2 cutouts on the dorsum of the swine. Using a UVB lamp (Model UVM-57, 302 nm lamp, UVP Inc., Upland, Calif.) placed on the template, sites were exposed to UVB with increasing time points, every other day for five days. Unexposed sites were covered with the same material as the template. One MED was established as the dose that produces the least amount of visible erythema. Swine were exposed to one MED, once per day, on three alternate days (Mon, Wed, Fri).
Following eight weeks of treatment, skin biopsies were taken using standard methods, for pigment deposition analysis. Sections from the skin biopsies were stained with Hematoxylin and Eosin (H&E), or with Fontana-Mason (F&M), using standard procedures (Sheenan DC, Hrapckak BB, eds., Theory and Practice of Histo-Technology (The C. V. Mosby Co., St. Louis (1980) pp. 223-277). At least three sections per biopsy were processed. Each experiment was repeated at least two times.
Table 4 represents the average value of all sites of responsive swine treated with each test material. The scale for evaluation is defined in Table 3.

Structure (SMILES)	Overall Score (change of pigmentation by DOPA and F&M staining) [1]	Score DOPA staining (tyrosinase activity) [1]	Score F&M staining (Pigment deposition) [1]	Score (pigment deposition, capped epidermal cells) ([2]; 0.5% (w/v) topical, twice a day, five days/week, eight weeks, average of all sites of responsive swine)	pigment deposition in swine skin (in words) [2]	pigment deposition in swine skin (in words) ([2]; listed as copper PCA)	tyrosinase activity in human pigmented epidermal equivalents (in words) ([1]; in vitro)
N[C@@H](Cc1ccc(O)cc1)C(=O)O [Tyrosine, tyrosine]	0-2	1-2	0-1				
O=C1CC[C@@H](C(=O)[O-])N1.O=C1CC[C@@H](C(=O)[O-])N1.[Cu+2] [Copper PCA]	1-2	1-2	1-2	2-3	enhanced pigment deposition	significantly increases	significantly increases
